Test results published in patent publication US8222260B2, “Substituted 6-anilinopurine derivatives as inhibitors of cytokinin oxidase/dehydrogenase and preparations containing these derivatives” (Univerzita Palackego V Olomouci, priority 2007, dated 2012).
Where two headings read alike, the source gives them in different places.

How the values were obtained:
recombinant AtCKX2 = target: T1, recombinant AtCKX2 (Arabidopsis thaliana, UniProt Q9FUJ3); assay: Inhibition of cytokinin oxidase/dehydrogenase activity (PMS/MTT microtitre plate assay); assay type: biochemical
T1 sequence (Q9FUJ3 23-501): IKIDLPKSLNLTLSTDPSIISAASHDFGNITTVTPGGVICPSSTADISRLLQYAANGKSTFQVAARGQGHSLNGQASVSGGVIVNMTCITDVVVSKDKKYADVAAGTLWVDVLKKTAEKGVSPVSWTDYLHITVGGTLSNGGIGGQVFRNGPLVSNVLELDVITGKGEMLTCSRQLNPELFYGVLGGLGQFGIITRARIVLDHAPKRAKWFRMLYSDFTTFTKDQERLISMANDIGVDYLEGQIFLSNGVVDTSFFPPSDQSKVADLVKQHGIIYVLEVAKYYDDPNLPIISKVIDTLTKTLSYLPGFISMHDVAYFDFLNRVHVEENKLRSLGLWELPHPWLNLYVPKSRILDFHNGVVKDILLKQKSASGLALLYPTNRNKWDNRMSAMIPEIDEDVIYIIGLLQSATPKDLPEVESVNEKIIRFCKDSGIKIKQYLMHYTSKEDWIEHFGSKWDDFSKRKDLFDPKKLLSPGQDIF
Method: IC50 determinations were done using the assay in microtitre plate. Each well contained 100 μL of PMS/MTT [phenazine methosulfate/3-(4,5-dimethylthiazol-2-yl)-2,5-diphenyltetrazolium bromide] reaction mixture (final concentrations: 0.1 M KH2PO4, pH 7.4, 1 mM MTT, 0.2 mM PMS) containing the tested compound (3×10^−7 M-3×10^−4 M) and 30 μM N^6-isopentenyladenine (iP) as a substrate. 100 μL of cell-free growth medium of S. cerevisiae strain 23344c ura^− harboring the plasmid pYES2-AtCKX2 was directly used as a source of AtCKX2. Plates were incubated in the dark for […] at 37° C. and the enzymatic reaction was stopped by 25 μL of 35% acetic acid. The absorbance at 578 nm was measured using spectrophotometer Tecan. Absorbance of the sample without iP was subtracted.
The IC50 value, the compound concentration that inhibits the enzyme activity to 50%, was calculated from the obtained dose response curves. The values shown in Table 9 are means of three replicates and the entire test was repeated at least twice.

[1] = test system: Amaranthus caudatus cotyledon/hypocotyl explants; assay: Amaranthus bioassay (betacyanin content); assay type: cell-based, Amaranthus caudatus var. atropurpurea; details: for Activity (%) [10^−5 mol · l^−1 K = 100%]: at the concentration with highest activity, relative to 10^−5 M kinetin
Method: The standard Amaranthus bioassay was performed with the following modifications. The seeds of Amaranthus caudatus var. atropurpurea were surface-sterilised in 10% (w/v) N-chlorobenzenesulfonamide for 10 min and washed 5 times with deionized water. They were placed in 15 cm Petri dishes containing paper tissues saturated with deionized water. After 72 h of cultivation at 25° C. in darkness, the roots of the seedlings were cut off. The explants, consisting of two cotyledons and hypocotyls, were placed in 5 cm Petri dishes onto two layers of filtration paper soaked with 1 ml of the incubation medium containing 10 μmol of Na2HPO4—KH2PO4, pH 6.8, 5 μmol of tyrosine and the compound to be tested. There were 20 explants per dish. The procedure was carried out under green safe light in a darkroom. After 48 h of incubation at 25° C. in darkness, betacyanin was extracted by freezing the explants in 4 ml 3.33 μM acetic acid. The concentration of betacyanin was determined from the absorbances at 537 nm and 620 nm as follows: ΔA=A537nm−A620nm. The values ΔA were plotted against the concentration tested, are means of five replicates and the entire test was repeated at least twice. […] The compounds to be tested were dissolved in dimethylsulfoxide (DMSO) and the solution brought up to 10^−3M with distilled water.
From the obtained data, the concentration with the highest activity was selected for each compound tested. Relative activity of the compound at this concentration was calculated (Tab. 12). The activity obtained for 10^−5 M kinetin (K) was postulated as 100%.

AHK3 = target: T2, AHK3 (Arabidopsis thaliana, UniProt Q9C5U1); assay: Activation of cytokinin receptors (E. coli KMI001 beta-galactosidase reporter); assay type: cell-based; details: 28 h incubation; n.a. means no activation
T2 sequence (Q9C5U1 1-1036): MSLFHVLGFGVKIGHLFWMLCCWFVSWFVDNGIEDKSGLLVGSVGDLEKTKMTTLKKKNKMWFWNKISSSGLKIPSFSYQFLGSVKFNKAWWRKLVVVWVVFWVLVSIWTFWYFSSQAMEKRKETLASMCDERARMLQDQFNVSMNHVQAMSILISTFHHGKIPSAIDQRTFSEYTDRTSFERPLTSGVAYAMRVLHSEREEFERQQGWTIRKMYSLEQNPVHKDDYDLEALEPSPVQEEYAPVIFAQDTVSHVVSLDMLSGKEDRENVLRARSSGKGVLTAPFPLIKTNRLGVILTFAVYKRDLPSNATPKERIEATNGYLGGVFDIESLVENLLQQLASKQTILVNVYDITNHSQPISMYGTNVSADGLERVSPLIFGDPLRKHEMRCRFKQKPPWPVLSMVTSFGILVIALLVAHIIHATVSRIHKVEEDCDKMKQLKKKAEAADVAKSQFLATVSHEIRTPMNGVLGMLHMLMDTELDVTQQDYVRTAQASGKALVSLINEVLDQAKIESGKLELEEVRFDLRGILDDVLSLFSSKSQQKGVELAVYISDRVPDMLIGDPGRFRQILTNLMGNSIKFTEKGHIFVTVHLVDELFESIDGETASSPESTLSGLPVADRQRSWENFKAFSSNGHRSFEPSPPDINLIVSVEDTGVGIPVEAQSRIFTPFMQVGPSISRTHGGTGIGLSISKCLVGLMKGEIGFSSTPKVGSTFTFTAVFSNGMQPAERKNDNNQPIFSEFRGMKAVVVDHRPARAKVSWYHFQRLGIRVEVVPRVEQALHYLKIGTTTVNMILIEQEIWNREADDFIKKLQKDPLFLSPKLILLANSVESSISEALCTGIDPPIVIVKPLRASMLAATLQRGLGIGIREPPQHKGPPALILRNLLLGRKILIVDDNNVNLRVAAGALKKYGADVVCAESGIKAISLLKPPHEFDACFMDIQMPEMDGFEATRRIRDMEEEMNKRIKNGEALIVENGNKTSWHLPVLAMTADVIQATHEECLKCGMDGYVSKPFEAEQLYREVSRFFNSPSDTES
Method: Escherichia coli strains KMI001 harbouring the plasmid […]4 or […]3 were grown overnight at 25° C. in M9 media enriched with 0.1% casamino acids to OD600 1. The preculture was diluted 1:600 in 1 ml M9 medium containing 0.1% casamino acids and 1 μl stock solution of either the tested compound (10^-7 M-5×10^-5 M) or solvent control (DMSO, ethanol, methanol) were added. The cultures were further grown at 25° C. in microtiter plate, 200 μl per well. […] The cultures were centrifuged and 50 μl aliquots of the supernatant were transferred to microtiter plate containing 2 μl 150 mM 4-methyl umbelliferyl galactoside which was subsequently incubated for 1 h at 37° C. The reaction was stopped by adding 100 μl 0.2 M Na2CO3. […] The EC50 value, the compound concentration activating the receptor to 50%, was calculated from the obtained dose response curves. The values shown in Table 10 are means of three replicates and the entire test was repeated at least twice.

[2] = test system: osteosarcoma cell line HOS; assay: Calcein AM cytotoxicity assay; assay type: cell-based, human; details: 72 hours
Description: (§1) Absence of toxic effects against mammalian (especially human) cell lines in a wide concentration range is one of the requirements on compounds intended for use in agriculture and medicine. Because toxic compounds negatively influence metabolic processes in cells, many standard cytotoxicity assays are based on measurement of metabolisation rate of various artificial substrates. Resulting product is then quantified e.g. by means of spectrometry. The assays can be easily modified for use in 96-well plates. For evaluation of cytotoxic effect of compounds of this invention, a microtiter assay based on quantification of metabolisation of Calcein AM was used. The assay is widely used in drug screening programs and in chemosensitivity testing. In live cells, Calcein AM is enzymatically hydrolysed and accumulation of resulting calcein is manifested by green fluorescence.
Following human cell lines were used for routine screening of the compounds: T-lymphoblastic leukemia cell line CEM, promyelocytic leukemia cell line HL-60, erytroid leukemia cell line K-562, breast carcinoma cell line MCF-7, osteosarcoma cell line HOS and melanoma cell line G-361. Mouse cell lines B16-F10 (melanoma) and NIH-3T3 (fibroblasts) were used as well. The cells were maintained in Nunc/Corning 80 cm^2 plastic tissue culture flasks and cultured in cell culture medium (DMEM with 5 g/l glucose, 2 mM glutamine, 100 U/ml penicillin, 100 μg/ml streptomycin, 10% fetal calf serum and sodium bicarbonate).
(§2) The cell suspensions were prepared and diluted according to the particular cell type and the expected target cell density (2.500-30.000 cells per well based on cell growth characteristics) and pippetted (80 μl) into 96-well plates. Inoculates were allowed a pre-incubation period of 24 hours at 37° C. and 5% CO2 for stabilisation. Tested compound was added in total volume of 20 μl of water at time zero. Usually, test compound was evaluated at six 3-fold dilutions. In routine testing, the highest concentration tested was 166.6 μM. All drug concentrations were tested in triplicates. Incubations of cells with the test compounds lasted for 72 hours at 37° C., in 5% CO2 atmosphere and 100% humidity. At the end of incubation period Calcein AM in PBS was added into final concentration of 1 μg/ml. After another 1 hour of incubation fluorescence (FD) was measured with the Labsystem FIA Reader Fluoroscan Ascent (UK). Growth inhibition (GI) was estimated using the following equitation: GI=(mean FDdrug exposed wells−mean FDblank)/(mean FDcontrol wells−mean FDblank)×100%. The GI50 value, the drug concentration causing 50% reduction of Calcein AM conversion, was calculated from the obtained dose response curves.

[3] = test system: breast carcinoma cell line MCF-7; assay: Calcein AM cytotoxicity assay; assay type: cell-based, human
Description: as §1
(§3) Mouse cell lines B16-F10 (melanoma) and NIH-3T3 (fibroblasts) were used as well. The cells were maintained in Nunc/Corning 80 cm^2 plastic tissue culture flasks and cultured in cell culture medium (DMEM with 5 g/l glucose, 2 mM glutamine, 100 U/ml penicillin, 100 μg/ml streptomycin, 10% fetal calf serum and sodium bicarbonate).
as §2, with “In routine testing, the highest concentration tested was 166.6 μM.” left out, “FDblank)×100%.” for “FDblank)×100%. The GI50 value, the drug concentration causing 50% reduction of Calcein AM conversion, was calculated from the obtained dose response curves.”

NIH-3T3 (fibroblasts) = assay: Calcein AM cytotoxicity assay; assay type: cell-based, Mouse
Description: as §1, §3
as §2, with “In routine testing, the highest concentration tested was 166.6 μM.” left out, “FDblank)×100%.” for “FDblank)×100%. The GI50 value, the drug concentration causing 50% reduction of Calcein AM conversion, was calculated from the obtained dose response curves.”

[4] = test system: cytokinin-dependent tobacco callus Nicotiana tabacum L. cv. Wisconsin 38; assay: Tobacco callus biotest (plant cell division); assay type: cell-based
Method: The stimulatory effect of the newly prepared derivatives was tested in the calus biotest using cytokinin-dependent tobacco callus. Cytokinin-dependent tobacco callus Nicotiana tabacum L. cv. Wisconsin 38 was maintained at 25° C. in darkness on modified Murashige-Skoog medium, containing per 1 liter: 4 μmol of nicotinic acid, 2.4 μmol of pyridoxine hydrochloride, 1.2 μmol of thiamine, 26.6 μmol of glycine, 1.37 μmol of glutamine, 1.8 μmol of myo-inositol, 30 g of sucrose, 8 g of agar, 5.37 μmol of NAA and 0.5 μmol of 6-benzylaminopurine. Subcultivation was carried out every three weeks. Fourteen days before the bioassay, the callus tissue was transferred to the media without 6-benzylaminopurine. The biological activity was determined from the increase of the fresh callus weight after four weeks of cultivation. Five replicates were prepared for each concentration of the compound tested and the entire test was repeated twice. […] The compounds to be tested were dissolved in dimethylsulfoxide (DMSO) and the solution brought up to 10^−3 M with distilled water.
From the obtained data, the concentration with the highest activity was selected for each compound tested. Relative activity of the compound at this concentration was calculated (Table 11). The activity obtained for 10^−5 M of the control substance kinetin (K) was postulated as 100%.

O=C(Nc1ccccc1)Nc1cnns1 [thidiazuron, reference compound]
IC50 (recombinant AtCKX2): 30 µM

Nc1nc(Nc2cccc(F)c2)c2nc[nH]c2n1 [Compound 69]
IC50 (recombinant AtCKX2; 30 μM iP as substrate, pH 7.4, 37° C., means of three replicates, read-out: IC50, inhibition of recombinant AtCKX2): 29.4 µM
Activity (%) [10^−5 mol · l^−1 K = 100%] [1]: 113.2%
EC50 (AHK3): > 50 µM

COc1ccccc1Nc1nc(S)nc2nc[nH]c12 [Compound 87]
GI50 [2]: > 167 µM
GI50 ([3]; 72 hours, read-out: GI50 MCF7): > 167 µM
GI50 (NIH-3T3 (fibroblasts); 72 hours): > 167 µM

CSc1nc(Nc2cccc(O)c2)c2nc[nH]c2n1 [Compound 101]
GI50 [2]: > 167 µM
GI50 ([3]; 72 hours, read-out: GI50 MCF7): > 167 µM
GI50 (NIH-3T3 (fibroblasts); 72 hours): > 167 µM

Cc1nc(Nc2cccc(O)c2)c2nc[nH]c2n1 [Compound 116]
GI50 [2]: > 167 µM
GI50 ([3]; 72 hours, read-out: GI50 MCF7): > 167 µM
GI50 (NIH-3T3 (fibroblasts); 72 hours): > 167 µM

COc1cccc(Nc2nc(SC)nc3[nH]cnc23)c1 [Compound 103]
Activity (%) [10^−5 mol · l^−1 K = 100%] ([4]; at the concentration with highest activity, relative to 10^−5 M kinetin): 142.8%
concentration with highest activity ([4]; fresh weight after four weeks): 10^−5 mol · l^−1
GI50 [2]: > 167 µM
GI50 ([3]; 72 hours, read-out: GI50 MCF7): > 167 µM
concentration with highest activity ([1]; 48 h): 10^−5 mol · l^−1
Activity (%) [10^−5 mol · l^−1 K = 100%] [1]: 156.4%
GI50 (NIH-3T3 (fibroblasts); 72 hours): > 167 µM

Nc1nc(Nc2ccccc2)c2nc[nH]c2n1 [Compound 64]
GI50 ([2]; Homo sapiens): > 167 µM
GI50 ([3]; Homo sapiens, MCF7, 72 hours): > 167 µM
Activity (%) [10^−5 mol · l^−1 K = 100%] [1]: 125.2%
GI50 (NIH-3T3 (fibroblasts); Mus musculus, NIH3T3, 72 hours): > 167 µM
EC50 (AHK3): 25.3 µM

Sc1nc(Nc2ccccc2)c2nc[nH]c2n1 [Compound 78, 2-Thio-6-anilinopurine]
GI50 [2]: > 167 µM
GI50 ([3]; 72 hours, read-out: GI50 MCF7): > 167 µM
GI50 (NIH-3T3 (fibroblasts); 72 hours): > 167 µM

CSc1nc(Nc2ccccc2)c2[nH]cnc2n1 [Compound 94, 2-Methylthio-6-anilinopurine]
GI50 ([2]; Homo sapiens): > 167 µM
GI50 ([3]; Homo sapiens, MCF7, 72 hours): > 167 µM
GI50 (NIH-3T3 (fibroblasts); Mus musculus, NIH3T3, 72 hours): > 167 µM
